Test results published in ChEMBL document CHEMBL5113477, “Membrane acting Povarov-Doebner derived compounds potently disperse preformed multidrug resistant Gram-positive bacterial biofilms” (Eur J Med Chem, 2022).
Converted amounts (≈) assume the structure as drawn. The source made the active and inactive calls. The calls are words filed in the database; no cut-off is given here.

Assays:
Enterococcus faecalis [1] = assay: (§1) Synergistic antibiofilm activity against vancomycin-resistant Enterococcus faecalis ATCC 51575 in TSB broth assessed as dispersal of glucose-induced biofilm by measuring Bithionol MBEC preincubated with glucose for 48 hrs followed by compound addition and measured after 24 hrs by crystal violet staining based checkerboard assay; format: functional
Staphylococcus aureus [2] = assay: Bactericidal activity against persister methicillin-resistant Staphylococcus aureus USA 300 at 1 times MIC incubated for 2 to 8 hrs by time kill assay; format: functional, organism-based; details: time 2-8 hrs
Staphylococcus aureus [3] = assay: Inhibition of RNA synthesis in Staphylococcus aureus ATCC 25923 at 0.25 to 8 ug/ml by [5-3H]-uridine incorporation assay; format: functional, organism-based; details: dose 0.25-8 µg/ml
Staphylococcus aureus [4] = assay: (§2) Synergistic antibiofilm activity against methicillin-resistant Staphylococcus aureus USA 300 in TSB broth assessed as dispersal of glucose-induced biofilm with distribution of ruptured bacteria components and debris at 4 ug/ml preincubated with glucose for 48 hrs followed by compound addition and further incubated for 24 hrs in presence of Bithionol by SEM analysis; format: functional, organism-based; details: dose 4.0 µg/ml
Enterococcus faecalis [5] = assay: (§3) Synergistic antibiofilm activity against vancomycin-resistant Enterococcus faecalis ATCC 51575 in TSB broth assessed as dispersal of glucose-induced biofilm by measuring fractional inhibitory concentration index preincubated with glucose for 48 hrs followed by compound addition and further incubated for 24 hrs in presence of Bithionol by crystal violet staining based checkerboard assay; format: functional
Staphylococcus aureus [6] = assay: Inhibition of biofilm formation in methicillin-resistant Staphylococcus aureus USA 300 in TSB broth at 0.0078 to 4 ug/ml incubated for 48 hrs in presence of glucose by crystal violet staining based analysis; format: functional, organism-based; details: dose 0.0078-4 µg/ml
Staphylococcus aureus [7] = assay: (§4) Synergistic antibiofilm activity against methicillin-resistant Staphylococcus aureus USA 300 in TSB broth assessed as dispersal of glucose-induced biofilm at 2 ug/ml preincubated with glucose for 48 hrs followed by compound addition and further incubated for 24 hrs in presence of 0.5 ug/ml Bithionol and AgNO3 by crystal violet staining based analysis; format: functional; details: dose 2 µg/ml
Enterococcus faecalis [8] = assay: Antibiofilm activity against vancomycin-resistant Enterococcus faecalis ATCC 51575 in TSB broth assessed as dispersal of glucose-induced biofilm at 8 to 16 ug/ml preincubated with glucose for 48 hrs followed by compound addition and measured after 24 hrs by crystal violet staining based analysis; format: functional; details: dose 8-16 µg/ml, at 8 to 16 µg/mL
Enterococcus faecium [9] = assay: as §3, with “faecium” for “faecalis”, “700221” for “51575”, “biofilm” for “biofilm by measuring fractional inhibitory concentration index”; format: functional
Staphylococcus aureus [10] = assay: as §4, with “at 1” for “at 2”, “of Nitroxoline” for “of 0.5 ug/ml Bithionol and AgNO3”, “based assay” for “based analysis”; format: functional; details: dose 1 µg/ml
Enterococcus faecium [11] = assay: Antibiofilm activity against vancomycin-resistant Enterococcus faecium ATCC 700221 in TSB broth assessed as dispersal of glucose-induced biofilm preincubated with glucose for 48 hrs followed by compound addition and measured after 24 hrs by crystal violet staining based analysis; format: functional
Staphylococcus aureus [12] = assay: Antibacterial activity against methicillin-resistant Staphylococcus aureus ATCC 33592 assessed as reduction in visible bacterial growth incubated for 18 to 20 hrs by CLSI based broth microdilution analysis; format: functional; details: time 18-20 hrs
Enterococcus faecium [13] = assay: Antibacterial activity against vancomycin-resistant Enterococcus faecium ATCC 700221 assessed as reduction in visible bacterial growth incubated for 18 to 20 hrs by CLSI based broth microdilution analysis; format: functional; details: time 18-20 hrs
Staphylococcus aureus [14] = assay: Antibiofilm activity against methicillin-resistant Staphylococcus aureus USA 300 in TSB broth assessed as dispersal of glucose-induced biofilm at 8 to 16 ug/ml preincubated with glucose for 48 hrs followed by compound addition and measured after 24 hrs by crystal violet staining based analysis; format: functional; details: dose 8-16 µg/ml, at 8 to 16 µg/mL
Staphylococcus aureus [15] = assay: Antibacterial activity against methicillin-resistant Staphylococcus aureus USA 300 assessed as reduction in visible bacterial growth incubated for 18 to 20 hrs by CLSI based broth microdilution analysis; format: functional; details: time 18-20 hrs
Enterococcus faecium [16] = assay: as §4, with “against vancomycin-resistant Enterococcus faecium ATCC 700221” for “against methicillin-resistant Staphylococcus aureus USA 300”, “at 1” for “at 2”, “of 1” for “of 0.5”; format: functional; details: dose 1 µg/ml
Enterococcus faecium [17] = assay: as §1, with “faecium” for “faecalis”, “700221” for “51575”, “Nitroxoline” for “Bithionol”; format: functional
Enterococcus faecalis [18] = assay: as §1, with “Nitroxoline” for “Bithionol”; format: functional
Staphylococcus aureus [19] = assay: Inhibition of biofilm formation in methicillin-resistant Staphylococcus aureus ATCC 33592 in TSB broth at 0.0078 to 4 ug/ml incubated for 48 hrs in presence of glucose by crystal violet staining based analysis; format: functional, organism-based; details: dose 0.0078-4 µg/ml
Enterococcus faecium [20] = assay: as §1, with “faecium” for “faecalis”, “700221” for “51575”; format: functional
Cell membrane = assay: Induction of cell membrane disruption in Staphylococcus aureus ATCC 25923 assessed as appearance of hairy protrusions at 2 ug/ml incubated for 30 mins by SEM analysis; format: subcellular; details: dose 2.0 µg/ml
Enterococcus faecium [21] = assay: as §4, with “vancomycin-resistant Enterococcus faecium ATCC 700221” for “methicillin-resistant Staphylococcus aureus USA 300”; format: functional; details: dose 2 µg/ml
Enterococcus faecalis [22] = assay: as §3, with “biofilm” for “biofilm by measuring fractional inhibitory concentration index”, “Nitroxoline” for “Bithionol”; format: functional
Enterococcus faecalis [23] = assay: Antibacterial activity against vancomycin-resistant Enterococcus faecalis ATCC 51575 assessed as reduction in visible bacterial growth incubated for 18 to 20 hrs by CLSI based broth microdilution analysis; format: functional; details: time 18-20 hrs
Staphylococcus aureus [24] = assay: Antibacterial activity against methicillin-resistant Staphylococcus aureus USA 300 (ARLG 1649) assessed as reduction in visible bacterial growth incubated for 18 to 20 hrs by CLSI based broth microdilution analysis; format: functional; details: time 18-20 hrs
Staphylococcus aureus [25] = assay: Bactericidal activity against exponential phase of methicillin-resistant Staphylococcus aureus USA 300 at 1 to 4 times MIC incubated for 2 to 8 hrs by time kill assay; format: functional, organism-based; details: time 2-8 hrs
Listeria monocytogenes = assay: Antibacterial activity against Listeria monocytogenes ATCC 19115 assessed as reduction in visible bacterial growth incubated for 18 to 20 hrs by CLSI based broth microdilution analysis; format: functional; details: time 18-20 hrs
Enterococcus faecalis [26] = assay: Antibiofilm activity against vancomycin-resistant Enterococcus faecalis ATCC 51575 in TSB broth assessed as dispersal of glucose-induced biofilm preincubated with glucose for 48 hrs followed by compound addition and measured after 24 hrs by crystal violet staining based analysis; format: functional
Staphylococcus aureus [27] = assay: as §3, with “methicillin-resistant Staphylococcus aureus USA 300” for “vancomycin-resistant Enterococcus faecalis ATCC 51575”, “Nitroxoline” for “Bithionol”; format: functional
Staphylococcus aureus [28] = assay: as §1, with “methicillin-resistant Staphylococcus aureus USA 300” for “vancomycin-resistant Enterococcus faecalis ATCC 51575”, “Nitroxoline” for “Bithionol”; format: functional
Staphylococcus aureus [29] = assay: as §2, with “biofilm” for “biofilm with distribution of ruptured bacteria components and debris”, “at 1” for “at 4”, “of Nitroxoline” for “of Bithionol”; format: functional, organism-based; details: dose 1.0 µg/ml
Erythrocyte = assay: Hemolytic activity in sheep RBC at 10 times MIC incubated for 30 mins by spectrophotometry; format: toxicity, cell-based, Ovis aries; details: 0.5 h

Oc1ccc([C@@H]2Nc3ccc(S(F)(F)(F)(F)F)cc3[C@H]3[C@@H]4CC[C@@H](C4)[C@H]32)cc1
MBEC (Enterococcus faecalis [1]): 4 µg/mL
Activity (Staphylococcus aureus [2]): Active
inhibition (Staphylococcus aureus [3]): Active
Activity (Staphylococcus aureus [4]): Active
fractional inhibitory concentration index (FICI) (Enterococcus faecalis [5]): 0.5
inhibition (Staphylococcus aureus [6]): Active
Activity (Staphylococcus aureus [7]): >80%
Activity (Enterococcus faecalis [8]): 70%
MBEC (Enterococcus faecium [9]): 1 µg/mL
Activity (Staphylococcus aureus [10]): >80%
MBEC (Enterococcus faecium [11]): 32 µg/mL
MBC (Staphylococcus aureus [12]): 1 µg/mL (≈ 2.4 µM)
MIC (Staphylococcus aureus [12]): 2 µg/mL (≈ 4.79 µM)
MBC (Enterococcus faecium [13]): 2 µg/mL (≈ 4.79 µM)
MIC (Enterococcus faecium [13]): 2 µg/mL (≈ 4.79 µM)
Activity (Staphylococcus aureus [14]): 70%
MBC (Staphylococcus aureus [15]): 2 µg/mL (≈ 4.79 µM)
MIC (Staphylococcus aureus [15]): 1 µg/mL (≈ 2.4 µM)
Activity (Enterococcus faecium [16]): >70%
MBEC (Enterococcus faecium [17]): 0.5 µg/mL
MBEC (Enterococcus faecalis [18]): 2 µg/mL
inhibition (Staphylococcus aureus [19]): Active
MBEC (Enterococcus faecium [20]): 2 µg/mL
Activity (Cell membrane): Active
Activity (Enterococcus faecium [21]): >70%
MBEC (Enterococcus faecalis [22]): 4 µg/mL
MBC (Enterococcus faecalis [23]): 2 µg/mL (≈ 4.79 µM)
MIC (Enterococcus faecalis [23]): 2 µg/mL (≈ 4.79 µM)
MBC (Staphylococcus aureus [24]): 2 µg/mL (≈ 4.79 µM)
MIC (Staphylococcus aureus [24]): 1 µg/mL (≈ 2.4 µM)
Activity (Staphylococcus aureus [25]): Active
MIC (Listeria monocytogenes): 1 µg/mL (≈ 2.4 µM)
MBEC (Enterococcus faecalis [26]): 16 µg/mL
fractional inhibitory concentration index (FICI) (Staphylococcus aureus [27]): 0.28
MBEC (Staphylococcus aureus [28]): 4 µg/mL
Activity (Staphylococcus aureus [29]): Active
Activity (Erythrocyte): Non-Toxic
